Experimental data reported in ChEMBL document CHEMBL4308864, “Targeting tyrosine kinase: Development of acridone - pyrrole - oxindole hybrids against human breast cancer” (2019).

What was measured:
Type in all cases: functional
CCRF-CEM = experiment: Growth inhibition of human CCRF-CEM cells assessed as cell growth at 10^-5 M incubated for 48 hrs by sulforhodamine B assay relative to control; settings: read-out: Activity
K562 = experiment: Growth inhibition of human K562 cells assessed as cell growth at 10^-5 M incubated for 48 hrs by sulforhodamine B assay relative to control; settings: K562, 48 h, read-out: Activity
MOLT-4 = experiment: Growth inhibition of human MOLT4 cells assessed as cell growth at 10^-5 M incubated for 48 hrs by sulforhodamine B assay relative to control; settings: MOLT-4, 48 h, read-out: Activity
HOP-92 = experiment: Growth inhibition of human HOP92 cells assessed as cell growth at 10^-5 M incubated for 48 hrs by sulforhodamine B assay relative to control; settings: HOP-92, 48 h, read-out: Activity
NCI-H226 = experiment: Growth inhibition of human NCI-H226 cells assessed as cell growth at 10^-5 M incubated for 48 hrs by sulforhodamine B assay relative to control; settings: NCI-H226, 48 h, read-out: Activity
NCI-H460 = experiment: Growth inhibition of human NCI-H460 cells assessed as cell growth at 10^-5 M incubated for 48 hrs by sulforhodamine B assay relative to control; settings: NCI-H460, 48 h, read-out: Activity
NCI-H522 = experiment: Growth inhibition of human NCI-H522 cells assessed as cell growth at 10^-5 M incubated for 48 hrs by sulforhodamine B assay relative to control; settings: NCI-H522, 48 h, read-out: Activity
COLO 205 = experiment: Growth inhibition of human COLO205 cells assessed as cell growth at 10^-5 M incubated for 48 hrs by sulforhodamine B assay relative to control; settings: COLO 205, 48 h, read-out: Activity
HCC 2998 = experiment: Growth inhibition of human HCC2998 cells assessed as cell growth at 10^-5 M incubated for 48 hrs by sulforhodamine B assay relative to control; settings: HCC 2998, 48 h, read-out: Activity
HT-29 = experiment: Growth inhibition of human HT-29 cells assessed as cell growth at 10^-5 M incubated for 48 hrs by sulforhodamine B assay relative to control; settings: HT-29, 48 h, read-out: Activity
SNB-19 = experiment: Growth inhibition of human SNB19 cells assessed as cell growth at 10^-5 M incubated for 48 hrs by sulforhodamine B assay relative to control; settings: SNB-19, 48 h, read-out: Activity
Malme-3M = experiment: Growth inhibition of human MALME-3M cells assessed as cell growth at 10^-5 M incubated for 48 hrs by sulforhodamine B assay relative to control; settings: read-out: Activity
SK-MEL-2 = experiment: Growth inhibition of human SK-MEL-2 cells assessed as cell growth at 10^-5 M incubated for 48 hrs by sulforhodamine B assay relative to control; settings: SK-MEL-2, 48 h, read-out: Activity
UACC-62 = experiment: Growth inhibition of human UACC62 cells assessed as cell growth at 10^-5 M incubated for 48 hrs by sulforhodamine B assay relative to control; settings: UACC-62, 48 h, read-out: Activity
IGROV-1 = experiment: Growth inhibition of human IGROV1 cells assessed as cell growth at 10^-5 M incubated for 48 hrs by sulforhodamine B assay relative to control; settings: IGROV-1, 48 h, read-out: Activity
OVCAR-3 = experiment: Growth inhibition of human OVCAR3 cells assessed as cell growth at 10^-5 M incubated for 48 hrs by sulforhodamine B assay relative to control; settings: OVCAR-3, 48 h, read-out: Activity
OVCAR-5 = experiment: Growth inhibition of human OVCAR5 cells assessed as cell growth at 10^-5 M incubated for 48 hrs by sulforhodamine B assay relative to control; settings: OVCAR-5, 48 h, read-out: Activity
OVCAR-8 = experiment: Growth inhibition of human OVCAR8 cells assessed as cell growth at 10^-5 M incubated for 48 hrs by sulforhodamine B assay relative to control; settings: OVCAR-8, 48 h, read-out: Activity
786-0 = experiment: Growth inhibition of human 786-0 cells assessed as cell growth at 10^-5 M incubated for 48 hrs by sulforhodamine B assay relative to control; settings: 786-0, 48 h, read-out: Activity
CAKI-1 = experiment: Growth inhibition of human Caki1 cells assessed as cell growth at 10^-5 M incubated for 48 hrs by sulforhodamine B assay relative to control; settings: CAKI-1, 48 h, read-out: Activity
RXF 393 = experiment: Growth inhibition of human RXF393 cells assessed as cell growth at 10^-5 M incubated for 48 hrs by sulforhodamine B assay relative to control; settings: RXF 393, 48 h, read-out: Activity
TK-10 = experiment: Growth inhibition of human TK10 cells assessed as cell growth at 10^-5 M incubated for 48 hrs by sulforhodamine B assay relative to control; settings: TK-10, 48 h, read-out: Activity
DU-145 = experiment: Growth inhibition of human DU145 cells assessed as cell growth at 10^-5 M incubated for 48 hrs by sulforhodamine B assay relative to control; settings: DU-145, 48 h, read-out: Activity
MCF7 = experiment: Growth inhibition of human MCF7 cells at 10^-5 M incubated for 48 hrs by sulforhodamine B assay relative to control; settings: MCF7, 48 h, read-out: GI
MDA-MB-231 = experiment: Growth inhibition of human MDA-MB-231 cells assessed as cell growth at 10^-5 M incubated for 48 hrs by sulforhodamine B assay relative to control; settings: MDA-MB-231, 48 h, read-out: Activity
Hs-578T = experiment: Growth inhibition of human Hs578T cells assessed as cell growth at 10^-5 M incubated for 48 hrs by sulforhodamine B assay relative to control; settings: read-out: Activity
T47D = experiment: Growth inhibition of human T47D cells at 10^-5 M incubated for 48 hrs by sulforhodamine B assay relative to control; settings: read-out: GI

Row | SMILES | growth at 10 µM (CCRF-CEM) | growth at 10 µM (K562) | growth at 10 µM (MOLT-4) | growth at 10 µM (HOP-92) | growth at 10 µM (NCI-H226) | growth at 10 µM (NCI-H460) | growth at 10 µM (NCI-H522) | growth at 10 µM (COLO 205) | growth at 10 µM (HCC 2998) | growth at 10 µM (HT-29) | growth at 10 µM (SNB-19) | growth at 10 µM (Malme-3M) | growth at 10 µM (SK-MEL-2) | growth at 10 µM (UACC-62) | growth at 10 µM (IGROV-1) | growth at 10 µM (OVCAR-3) | growth at 10 µM (OVCAR-5) | growth at 10 µM (OVCAR-8) | growth at 10 µM (786-0) | growth at 10 µM (CAKI-1) | other results
1 | O=C1NC(=O)C(=Cc2cccn2CCCCn2c3ccccc3c(=O)c3ccccc32)C(=O)N1 | 64.1% | 58.9% | 70.4% | 86.1% | 88.7% | 90.2% | 70.5% | 100% | 100% | 90.2% | 75.4% | 95.6% | 92.9% | 66.1% | 72.1% | 96.6% | 91.8% | 86.4% | 86.6% | 82.9% | growth at 10 µM (RXF 393): 81.4%; growth at 10 µM (TK-10): 92.4%; growth at 10 µM (DU-145): 92.2%; inhibition of growth at 10 µM (MCF7): 43%; growth at 10 µM (MDA-MB-231): 82.5%; growth at 10 µM (Hs-578T): 85.1%; inhibition of growth at 10 µM (T47D): 43%
2 | O=C1/C(=C\c2cccn2CCCCCn2c3ccccc3c(=O)c3ccccc32)c2ccccc2N1c1c(Cl)cccc1Cl | 100% | 97.6% | 87.6% | 65.6% | 91.6% | 99.7% | 84.9% | 72.2% | 66.3% | 96.2% | 98.5% | 108% | 101% | 82.6% | 98.7% | 99.1% | 94.5% | 97.7% | 104% | 74.4% | growth at 10 µM (RXF 393): 100%; growth at 10 µM (TK-10): 99.8%; growth at 10 µM (DU-145): 111%; inhibition of growth at 10 µM (MCF7): 87%; growth at 10 µM (MDA-MB-231): 97.5%; growth at 10 µM (Hs-578T): 101%; inhibition of growth at 10 µM (T47D): 72%
3 | O=C1/C(=C\c2cccn2CCCCn2c3ccccc3c(=O)c3ccccc32)c2ccccc2N1c1c(Cl)cccc1Cl | 103% | 91.5% | 93.8% | 71% | 89.5% | 104% | 90% | 70% | 46.7% | 110% | 98.2% | 106% | 105% | 82.1% | 110% | 118% | 104% | 98.3% | 103% | 87.4% | growth at 10 µM (RXF 393): 97.5%; growth at 10 µM (TK-10): 108%; growth at 10 µM (DU-145): 111%; inhibition of growth at 10 µM (MCF7): 68%; growth at 10 µM (MDA-MB-231): 98.4%; growth at 10 µM (Hs-578T): 103%; inhibition of growth at 10 µM (T47D): 33%
